This is an account of results in patent US10519504B2, “Methods for treatment of oncological disorders using epimetabolic shifters, multidimensional intracellular molecules, or environmental influencers” (Berg LLC, priority 2009, dated 2019).

The structures appear in SMILES notation.

In the assay the test system is ATP Citrate Lyase (ACL). Put plainly: Western blot, ATP Citrate Lyase levels. The note with it: for ATP Citrate Lysase Normalized Intensity as % of control: glucose 5g, 48 h. The class given is cell-based, human. How it is done:
The whole cell pellets were resuspended one at a time in 1 mL of C7 buffer and transferred to labeled 15 mL tubes. The samples were then sonicated in the cold room on ice using 6 sonic pulses with the setting at #14. The samples were spun for a short time to 2500 g after sonication and the samples transferred to 2 ml tubes. The pH was verified of each sample (pH should be 9.0) using the foam remaining in the […] sample tubes.
After transfer each of the blots was placed in between 2 Whatman Filter papers and dried for 15-20 minutes. After drying the blots were labeled with the date, the type of samples and either blot 1 or blot 2 using a HB pencil. The molecular weight markers were outlined with the pencil and with single lines for the blue and a doublet for the colored markers. The blots were activated with methanol for 5 seconds, washed with water for 5 minutes, and TBST for 15 minutes. The blots were blocked for 1 hour with 5% blocking reagent in TBS-T at room temperature and then washed 3 times with TBS-T (1X−15′; 2X5′ each). Blot 1 was probed with the primary antibody for IDH1 (Cell Signaling #3997) in TBST with 5% BSA (at 1:1000 dilutions) and blot 2 with the rabbit polyclonal antibody for ATP Citrate Lyase in 5% BSA (Cell Signaling #4332) at 1:1000 dilution by incubation overnight at 4 deg C. with shaking. After the overnight incubation with primary antibodies, the blots were washed 3 times with TBS-T (1X−15′; 2X5′ each) and probed with the secondary antibody (antirabbit; 1:10,000 dilution) for 1 h on the orbital tilting shaker at room temperature. After 1 h of incubation with secondary antibodies, the blots were washed 3 times with TBS-T (1X−15′; 2X5′ each) and then incubated with ECF reagent for 5 mins and then each blot scanned with 5100 Fuji Laser scanner at 25 uM resolution, 16 bit, green laser, at 400V and at 500 V.
The samples were processed and run on a 4-12% Bis-Tris Novex NuPAGE gel as described above. The gels were run, transferred and stained essentially as described above.
The Isocitrate dehydrogenase blot was stripped by incubating for 30 minutes with methanol, followed by two 10 minute washes with TBS-T, then 30 minutes of incubation with stripping buffer at 50 deg C., and followed by two washes with 100 ml or more of TBS-T for 30′ each. The blot was scanned in laser scanner to check for complete stripping. The blot was activated with methanol for 5 seconds, washed with water for 5 minutes, and TBST for 15 minutes. The blot was blocked for 1 hour with 5% blocking reagent in TBS-T at room temperature and then washed 3 times with TBS-T (1X−15′; 2X5′ each). This was then probed with the rabbit polyclonal antibody for ATP Citrate Lyase in 5% BSA (Cell Signaling #4332) at 1:1000 dilution overnight at 4 deg C. with shaking. After the overnight incubation with primary antibody for ATP Citrate Lyase, the membrane was washed 3 times with TBS-T (1X−15′; 2X5′ each) and probed with the secondary antibody (antirabbit; 1:10,000 dilution) for 1 h on the orbital tilting shaker at room temperature. After 1 h of incubation with secondary antibodies, the blot was washed 3 times with TBS-T (1X−15′; 2X5′ each) and then incubated with ECF reagent for 5 minutes and then each blot scanned with 5100 Fuji Laser scanner at 25 uM resolution, 16 bit, green laser, at 400V and at 500 V.
In this experiment (western blot experiment 3), and in all of the experiments described below in this Example (i.e., western blot experiments 4 through 9), the cells were additionally treated with either 5 mM glucose (“5G”) or 22 mM glucose (“22G”). The samples derived from the cells were processed and run on a 4-12% Bis-Tris Novex NuPAGE gel as described above. The gels were run, transferred and stained essentially as described above.
The levels of IDH1, ATP citrate lyase and actin levels were determined by probing the blots with primary antibodies for IDH1, ATP citrate lyase and actin, essentially as described above.
A general note: Immunoblotting shows a protein as a band on a membrane.

As to `COC1=C(OC)C(=O)C(C/C=C(\C)CC/C=C(\C)CC/C=C(\C)CC/C=C(\C)CC/C=C(\C)CC/C=C(\C)CC/C=C(\C)CC/C=C(\C)CC/C=C(\C)CCC=C(C)C)=C(C)C1=O` [Q10, Coenzyme Q10], the ATP Citrate Lysase Normalized Intensity as % of control runs as follows: (HepG2, 50 uM) 85 % of control; (HepG2, 100 uM) 79 % of control; (PACA2, 50 uM) 68 % of control; (PACA2, 100 uM) 42 % of control. Moreover, the “expression of ACL” value by setting is: (cancer cells) “dose-dependent decrease in the expression of ACL enzymes”; (normal cells) “trend towards increased expression of ACL”.
